Source: PubChem BioAssay (NCI)
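Following 48 hours of exposure in 96-well plates, responses at five concentrations were used to interpolate endpoints linearly. Abbreviation: GI50, concentration required for 50% inhibition of growth. TGI marks complete inhibition of growth.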

Legend:
Assay in all cases: growth of human tumour cells (NCI), 48 h
[1] = test system: M14 melanoma
[2] = test system: CCRF-CEM leukemia
[3] = test system: A549 NSCLC
[4] = test system: EKVX NSCLC
[5] = test system: SK-MEL-5 melanoma
[6] = test system: SNB-75 CNS
[7] = test system: HOP-92 NSCLC
[8] = test system: NCI-H522 lung
[9] = test system: UACC-62 melanoma
[10] = test system: NCI-H460 lung
[11] = test system: K-562 leukemia
[12] = test system: SN12C renal
[13] = test system: BT-549 breast
[14] = test system: HCC-2998 colon
[15] = test system: OVCAR-8 ovarian
[16] = test system: ACHN renal
[17] = test system: SF-295 CNS
[18] = test system: LOX IMVI melanoma
[19] = test system: SK-OV-3 ovarian
[20] = test system: SF-539 CNS
[21] = test system: HCT-15 colon
[22] = test system: HS 578T breast
[23] = test system: IGROV1 ovarian
[24] = test system: SK-MEL-28 melanoma
[25] = test system: MALME-3M melanoma
[26] = test system: T-47D breast
[27] = test system: TK-10 renal
[28] = test system: RPMI-8226 leukemia
[29] = test system: RXF 393 renal
[30] = test system: COLO 205 colon
[31] = test system: CAKI-1 renal
[32] = test system: KM12 colon
[33] = test system: OVCAR-3 ovarian
[34] = test system: HT29 colon
[35] = test system: NCI-H226 lung
[36] = test system: MDA-MB-435
[37] = test system: NCI/ADR-RES ovarian
[38] = test system: 786-0 renal
[39] = test system: SK-MEL-2 melanoma
[40] = test system: SNB-19 CNS
[41] = test system: UO-31 renal
[42] = test system: DU-145 prostate
[43] = test system: NCI-H23 lung
[44] = test system: OVCAR-5 ovarian
[45] = test system: HCT-116 colon
[46] = test system: PC-3 prostate
[47] = test system: MCF7 breast
[48] = test system: HOP-62 NSCLC
[49] = test system: U251 CNS
[50] = test system: A498 renal
[51] = test system: OVCAR-4 ovarian
[52] = test system: UACC-257 melanoma
[53] = test system: MOLT-4 leukemia
[54] = test system: HL-60(TB) leukemia
[55] = test system: MDA-MB-231 breast

Question: `CCCCOc1ccc(/C=N/Nc2cc(C)nc3ccc(Br)cc23)cc1` was tested. Which GI50 [1] did it give?
Answer: The GI50 was 1740 nM.

Question: What about the TGI [1] of the same compound?
Answer: The TGI was 3200 nM.

Question: What about the GI50 [2] of the same compound?
Answer: Its GI50 is 1880 nM.

Question: What about the TGI [2] of the same compound?
Answer: Its TGI is 4460 nM.

Question: And the GI50 [3]?
Answer: The GI50 was 1880 nM.

Question: And the TGI [3]?
Answer: Its TGI is 3520 nM.

Question: And the GI50 [4]?
Answer: Its GI50 is 1630 nM.

Question: What about the TGI [4] of the same compound?
Answer: Its TGI is 3030 nM.

Question: And the GI50 [5]?
Answer: The GI50 was 1680 nM.

Question: What about the TGI [5] of the same compound?
Answer: The TGI was 3050 nM.

Question: What about the GI50 [6] of the same compound?
Answer: Its GI50 is 1700 nM.

Question: And the TGI [6]?
Answer: Its TGI is 3240 nM.

Question: And the GI50 [7]?
Answer: Its GI50 is 1540 nM.

Question: What about the TGI [7] of the same compound?
Answer: Its TGI is 3110 nM.

Question: And the GI50 [8]?
Answer: The GI50 was 1720 nM.

Question: And the TGI [8]?
Answer: The TGI was 3210 nM.

Question: What about the GI50 [9] of the same compound?
Answer: Its GI50 is 1740 nM.

Question: And the TGI [9]?
Answer: The TGI was 3260 nM.

Question: And the GI50 [10]?
Answer: The GI50 was 2080 nM.

Question: What about the TGI [10] of the same compound?
Answer: The TGI was 4060 nM.

Question: What about the GI50 [11] of the same compound?
Answer: The GI50 was 1710 nM.

Question: And the TGI [11]?
Answer: The TGI was 3970 nM.

Question: And the GI50 [12]?
Answer: Its GI50 is 1740 nM.

Question: What about the TGI [12] of the same compound?
Answer: Its TGI is 3250 nM.

Question: And the GI50 [13]?
Answer: The GI50 was 1770 nM.

Question: What about the TGI [13] of the same compound?
Answer: Its TGI is 3420 nM.

Question: What about the GI50 [14] of the same compound?
Answer: The GI50 was 2120 nM.

Question: What about the TGI [14] of the same compound?
Answer: The TGI was 3730 nM.

Question: And the GI50 [15]?
Answer: Its GI50 is 1770 nM.

Question: And the TGI [15]?
Answer: Its TGI is 3530 nM.

Question: And the GI50 [16]?
Answer: Its GI50 is 1730 nM.

Question: And the TGI [16]?
Answer: The TGI was 3110 nM.

Question: What about the GI50 [17] of the same compound?
Answer: Its GI50 is 1820 nM.

Question: And the TGI [17]?
Answer: The TGI was 3360 nM.

Question: And the GI50 [18]?
Answer: The GI50 was 1770 nM.

Question: And the TGI [18]?
Answer: The TGI was 3240 nM.

Question: And the GI50 [19]?
Answer: Its GI50 is 1660 nM.

Question: And the TGI [19]?
Answer: The TGI was 3050 nM.

Question: And the GI50 [20]?
Answer: The GI50 was 1840 nM.

Question: What about the TGI [20] of the same compound?
Answer: The TGI was 3290 nM.

Question: What about the GI50 [21] of the same compound?
Answer: Its GI50 is 1610 nM.

Question: What about the TGI [21] of the same compound?
Answer: The TGI was 3050 nM.

Question: What about the GI50 [22] of the same compound?
Answer: The GI50 was 1990 nM.

Question: What about the TGI [22] of the same compound?
Answer: The TGI was 4710 nM.

Question: And the GI50 [23]?
Answer: Its GI50 is 1910 nM.

Question: And the TGI [23]?
Answer: The TGI was 3590 nM.

Question: And the GI50 [24]?
Answer: Its GI50 is 1720 nM.

Question: What about the TGI [24] of the same compound?
Answer: Its TGI is 3130 nM.

Question: And the GI50 [25]?
Answer: The GI50 was 1910 nM.

Question: And the TGI [25]?
Answer: Its TGI is 3400 nM.

Question: And the GI50 [26]?
Answer: The GI50 was 1690 nM.

Question: And the TGI [26]?
Answer: Its TGI is 3600 nM.

Question: And the GI50 [27]?
Answer: The GI50 was 1910 nM.

Question: What about the TGI [27] of the same compound?
Answer: Its TGI is 3310 nM.

Question: And the GI50 [28]?
Answer: Its GI50 is 2030 nM.

Question: And the TGI [28]?
Answer: The TGI was 4580 nM.

Question: And the GI50 [29]?
Answer: Its GI50 is 1600 nM.

Question: And the TGI [29]?
Answer: Its TGI is 3050 nM.

Question: And the GI50 [30]?
Answer: Its GI50 is 1850 nM.

Question: What about the TGI [30] of the same compound?
Answer: Its TGI is 3470 nM.

Question: What about the GI50 [31] of the same compound?
Answer: Its GI50 is 1710 nM.

Question: What about the TGI [31] of the same compound?
Answer: The TGI was 3110 nM.

Question: What about the GI50 [32] of the same compound?
Answer: Its GI50 is 1950 nM.

Question: What about the TGI [32] of the same compound?
Answer: The TGI was 3850 nM.

Question: What about the GI50 [33] of the same compound?
Answer: Its GI50 is 2060 nM.

Question: What about the TGI [33] of the same compound?
Answer: Its TGI is 3840 nM.

Question: What about the GI50 [34] of the same compound?
Answer: Its GI50 is 1550 nM.

Question: And the TGI [34]?
Answer: The TGI was 2970 nM.

Question: What about the GI50 [35] of the same compound?
Answer: Its GI50 is 1830 nM.

Question: What about the TGI [35] of the same compound?
Answer: Its TGI is 3820 nM.

Question: And the GI50 [36]?
Answer: The GI50 was 1800 nM.

Question: And the TGI [36]?
Answer: The TGI was 3270 nM.

Question: What about the GI50 [37] of the same compound?
Answer: Its GI50 is 1960 nM.

Question: What about the TGI [37] of the same compound?
Answer: The TGI was 3850 nM.

Question: What about the GI50 [38] of the same compound?
Answer: The GI50 was 1830 nM.

Question: What about the TGI [38] of the same compound?
Answer: The TGI was 3370 nM.

Question: What about the GI50 [39] of the same compound?
Answer: Its GI50 is 1470 nM.

Question: What about the TGI [39] of the same compound?
Answer: The TGI was 2860 nM.

Question: And the GI50 [40]?
Answer: The GI50 was 1860 nM.

Question: And the TGI [40]?
Answer: The TGI was 3410 nM.

Question: And the GI50 [41]?
Answer: The GI50 was 1480 nM.

Question: What about the TGI [41] of the same compound?
Answer: The TGI was 2820 nM.

Question: And the GI50 [42]?
Answer: The GI50 was 1940 nM.

Question: And the TGI [42]?
Answer: Its TGI is 3870 nM.

Question: What about the GI50 [43] of the same compound?
Answer: Its GI50 is 1860 nM.

Question: And the TGI [43]?
Answer: The TGI was 3760 nM.

Question: What about the GI50 [44] of the same compound?
Answer: Its GI50 is 1860 nM.

Question: What about the TGI [44] of the same compound?
Answer: Its TGI is 3250 nM.

Question: And the GI50 [45]?
Answer: The GI50 was 1770 nM.

Question: And the TGI [45]?
Answer: The TGI was 3310 nM.

Question: And the GI50 [46]?
Answer: The GI50 was 1750 nM.

Question: What about the TGI [46] of the same compound?
Answer: The TGI was 3370 nM.

Question: And the GI50 [47]?
Answer: Its GI50 is 1830 nM.

Question: What about the TGI [47] of the same compound?
Answer: Its TGI is 3680 nM.

Question: And the GI50 [48]?
Answer: The GI50 was 1470 nM.

Question: And the TGI [48]?
Answer: The TGI was 2940 nM.

Question: And the GI50 [49]?
Answer: Its GI50 is 1800 nM.

Question: And the TGI [49]?
Answer: Its TGI is 3270 nM.

Question: And the GI50 [50]?
Answer: Its GI50 is 1480 nM.

Question: And the TGI [50]?
Answer: Its TGI is 2850 nM.

Question: And the GI50 [51]?
Answer: The GI50 was 1670 nM.

Question: What about the TGI [51] of the same compound?
Answer: Its TGI is 3060 nM.

Question: And the GI50 [52]?
Answer: Its GI50 is 1660 nM.

Question: And the TGI [52]?
Answer: Its TGI is 3180 nM.

Question: What about the GI50 [53] of the same compound?
Answer: The GI50 was 1910 nM.

Question: And the TGI [53]?
Answer: The TGI was 4110 nM.

Question: And the GI50 [54]?
Answer: The GI50 was 2020 nM.

Question: And the TGI [54]?
Answer: The TGI was 4070 nM.

Question: And the GI50 [55]?
Answer: The GI50 was 1880 nM.

Question: What about the TGI [55] of the same compound?
Answer: Its TGI is 3510 nM.
